Where two headings read alike, the source gives them in different places.
Experiments:
[1] = biological target: human recombinant LPA1 expressed in CHO cells (Homo sapiens (Human), UniProt Q92633); test: LPA1 antagonist FLIPR calcium assay in CHO-hLPA1 cells; format: cell-based
Description: The effectiveness of compounds of the present invention as LPA1 antagonists can be determined at the human recombinant LPA1 expressed in CHO cells, using a FLIPR assay in 384 well format.
CHO-hLPA1 cell lines are cultured in a humidified incubator at 5% CO2 in DMEM/F-12 (1:1) MIXTURE with 2 mM Glutamax, supplemented with 10% of Foetal Bovine Serum, 1 mM Sodium Pyruvate, 11 mM Hepes and 1× Penicillin/Streptomycin. […] Serial dilutions (1:3 or 1:4, 11 points CRC) of compounds are performed in 100% DMSO at 200× the final concentration. […] The final concentration of DMSO in the assay will be 0.5% in each well. Medium is removed by aspiration and cells are then incubated with 30 μl of a loading solution containing 5 μM of the cytoplasmic Ca2+ indicator Cal-520 AM in Assay Buffer containing 2.5 mM probenecid for 30 min at 37° C. incubator (cell loading). The loaded cell plates are transferred into the FLIPR instrument and calcium responses are monitored during the on-line addition protocols. For testing of compounds, after the cell loading, 10 μl/well of 4× antagonists' solution was added onto the cells. After 30 min pre-incubation (at 37° C.), 10 μl/well of 5× concentrated LPA EC80 was added and Ca2+ mobilization responses was followed during the on-line addition protocol. Intracellular peak fluorescence values subtracted by baseline fluorescence are exported and analysed to determine IC50 values, respectively. The calcium response is expressed as percentage of the maximal inhibition of the EC80 agonist response.
The raw data (peak height expressed as relative fluorescence units) are normalized and transformed into “percent of inhibition”. Curve fitting and pIC50 (−LogIC50) estimations are carried out using a four-parameter logistic model using XLfit Software.

[2] = biological target: BSEP (Homo sapiens (Human), UniProt O95342); test: BSEP inhibition: biliary clearance of Taurocolic Acid in sandwich-cultured human hepatocytes; format: in vitro ADME; conditions: 50 μM test compound, 10 μM TCA, human hepatocytes sandwich configuration; for inhibition at 10 min, 50 μM: sandwich-cultured cryopreserved human hepatocytes, probe Taurocolic Acid (TCA)
Description: BSEP inhibition was evaluated using human hepatocytes cultured between two layer of collagen (sandwich configuration). In this culture condition, hepatocytes express relevant transporters including BSEP and retain the bile canalicular structure. An inhibition of the biliary clearance of Taurocolic Acid (TCA), a known BSEP substrate, was used to assess BSEP interaction.
BSEP inhibition was evaluated using cryopreserved human hepatocytes (Plateable Cryopreserved Human Hepatocytes, BIOIVT) cultured for 5 day between two layer of collagen (sandwich configuration). In this culture condition, hepatocytes express relevant transporters including BSEP and retain the bile canalicular structure.
On day 5 of culture, hepatic cells are ready for the assay and the biliary clearance of Taurocolic Acid (TCA), a known BSEP substrate, can be estimated in presence and in absence of compound of interest.
The sample solution was prepared dissolving test compound and TCA in DMSO and then diluted in the Assay Buffer: Hank's Balance Salt Solution (HBSS+) warmed at 37° C. before use, to give the 10 μM TCA working solution with and without 50 μM of test compound. Hepatocytes were incubated for 10 minutes with these working solutions allowing TCA to be excreted into bile. At the end of incubation, the working solution was aspirated, and the content of the bile was collected through the addition of HBSS Modified without Ca2+/Mg2+(HBSS−). The presence of Ca2+ in the buffer is required to maintain the integrity of the tight junctions, the diffusional barrier between the canalicular lumen and extracellular space. Instead, incubation of cells in Ca2+-free buffer disrupts the tight junctions and opens the bile canalicular structures, allowing the bile content to be released and collect for HPLC-MS/MS analysis.
The in vitro biliary clearance of TCA incubated with and without test compounds is calculated according to the following formula:
where • Acc. Bile=(TCA amount in HBSS (−) buffer samples (pmol/mg protein)*Volume of each samples (mL))/Protein content per well (mg) • AUC=Incubation time (min)*T0 Concentration. T0 concentration is the initial TCA concentration in the medium.
The inhibition of BSEP was calculated as percentage of inhibition of TCA biliary clearance in presence of compound of interest, according to the following formula: BSEP inhibition %=100−(TCA ClBil with test compound*100)
TCA ClBil without test compound.

[3] = range of activity, CHO-hLPA1, LPA EC80, Ca2+ mobilization, read-out: LPA1 IC50

human recombinant LPA1 expressed in CHO cells, sequence (Q92633 whole entry): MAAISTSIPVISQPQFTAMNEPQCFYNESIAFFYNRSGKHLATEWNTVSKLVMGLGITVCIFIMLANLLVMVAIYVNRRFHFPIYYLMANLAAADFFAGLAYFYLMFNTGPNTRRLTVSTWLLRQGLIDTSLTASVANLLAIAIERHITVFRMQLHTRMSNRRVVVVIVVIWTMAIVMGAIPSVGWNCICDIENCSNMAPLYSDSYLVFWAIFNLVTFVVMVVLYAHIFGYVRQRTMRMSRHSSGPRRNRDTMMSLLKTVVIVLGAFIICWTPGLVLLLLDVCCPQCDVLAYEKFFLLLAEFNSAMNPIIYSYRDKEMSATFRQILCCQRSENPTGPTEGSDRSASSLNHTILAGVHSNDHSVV
BSEP, sequence (O95342 whole entry): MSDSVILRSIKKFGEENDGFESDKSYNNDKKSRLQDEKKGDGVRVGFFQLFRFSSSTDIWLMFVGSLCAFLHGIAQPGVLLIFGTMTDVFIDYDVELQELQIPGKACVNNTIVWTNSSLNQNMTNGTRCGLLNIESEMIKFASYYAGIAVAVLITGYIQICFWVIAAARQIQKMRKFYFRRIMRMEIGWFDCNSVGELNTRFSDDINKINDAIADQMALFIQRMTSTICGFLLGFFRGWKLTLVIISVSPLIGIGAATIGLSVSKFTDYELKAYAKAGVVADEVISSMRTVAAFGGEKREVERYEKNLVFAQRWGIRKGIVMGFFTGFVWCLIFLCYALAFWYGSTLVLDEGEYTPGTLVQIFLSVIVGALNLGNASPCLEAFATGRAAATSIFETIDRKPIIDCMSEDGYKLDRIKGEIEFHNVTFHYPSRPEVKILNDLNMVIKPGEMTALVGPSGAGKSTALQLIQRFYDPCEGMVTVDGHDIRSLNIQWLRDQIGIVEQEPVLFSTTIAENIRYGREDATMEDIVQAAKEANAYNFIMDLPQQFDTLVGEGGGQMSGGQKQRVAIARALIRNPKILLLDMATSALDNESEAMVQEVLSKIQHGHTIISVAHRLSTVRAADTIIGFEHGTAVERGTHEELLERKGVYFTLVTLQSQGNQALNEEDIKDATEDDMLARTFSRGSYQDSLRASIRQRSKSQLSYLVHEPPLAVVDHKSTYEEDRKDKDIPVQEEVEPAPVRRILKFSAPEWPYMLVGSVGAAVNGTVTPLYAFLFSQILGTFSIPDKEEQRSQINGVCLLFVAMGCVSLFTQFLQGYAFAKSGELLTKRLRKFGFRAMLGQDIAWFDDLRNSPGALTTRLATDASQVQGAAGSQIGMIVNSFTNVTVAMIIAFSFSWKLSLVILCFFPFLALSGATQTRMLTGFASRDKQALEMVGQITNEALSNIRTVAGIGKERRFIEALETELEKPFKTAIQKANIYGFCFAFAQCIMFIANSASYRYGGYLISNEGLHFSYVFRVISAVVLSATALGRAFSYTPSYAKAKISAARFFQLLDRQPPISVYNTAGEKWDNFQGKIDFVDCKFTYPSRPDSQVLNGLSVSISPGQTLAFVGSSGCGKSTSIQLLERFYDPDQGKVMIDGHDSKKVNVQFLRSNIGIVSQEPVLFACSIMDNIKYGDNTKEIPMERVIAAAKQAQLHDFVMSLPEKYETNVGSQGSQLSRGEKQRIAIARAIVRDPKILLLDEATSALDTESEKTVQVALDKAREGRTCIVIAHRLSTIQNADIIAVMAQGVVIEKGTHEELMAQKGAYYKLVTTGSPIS

SMILES | IC50 [1, 3] | inhibition at 10 min, 50 μM [2] | BSEP Inhibition at 50 μM [2] | IC50 ([1]; comparative compound, read-out: IC50 on receptor LPA1)
Cc1nc(-c2cnn(C)c2NC(=O)O[C@H](C)C2CCCC2)ccc1NC(=O)[C@H]1CCCC[C@@H]1C(=O)O [Example 51, (1S,2S)-2-((6-(5-((((R)-1-cyclopentylethoxy)carbonyl)amino)-1-methyl-1H-pyrazol-4-yl)-2-methylpyridin-3-yl)carbamoyl)cyclohexane-1-carboxylic acid] | 0.25 to 0.6 µM | ≤ 50% | – | –
C[C@@H](OC(=O)Nc1ccsc1-c1ccc(NC(=O)C2CCCCC2C(=O)O)cc1)c1ccccc1Cl (single isomer, unassigned) [Example 8] | 0.25 to 0.6 µM | – | – | –
C[C@@H](OC(=O)Nc1c(-c2ccc(NC(=O)C3CCCCC3C(=O)O)cc2)cnn1C)c1ccccc1Cl (single isomer, unassigned) [Example 4] | < 0.05 µM | – | – | –
C[C@@H](OC(=O)Nc1ccsc1-c1ccc(NC(=O)C2CCCCC2C(=O)O)cc1)c1ccccc1Cl (single isomer, unassigned) [Example 10] | < 0.05 µM | – | ≤50% | –
CCn1nnc(-c2ccc(NC(=O)[C@H]3CCCC[C@@H]3C(=O)O)c(C)n2)c1NC(=O)O[C@H](C)c1ccccc1Cl [Example 48, (1S,2S)-2-((6-(5-((((R)-1-(2-chlorophenyl)ethoxy)carbonyl)amino)-1-ethyl-1H-1,2,3-triazol-4-yl)-2-methylpyridin-3-yl)carbamoyl)cyclohexane-1-carboxylic acid] | < 0.05 µM | ≤ 50% | – | –
C[C@@H](OC(=O)Nc1ccsc1-c1ccc(NC(=O)C2CCCCC2C(=O)O)cc1)c1ccccc1Cl (stereo partly drawn) [Example 6, Cis-2-((4-(3-((((R)-1-(2-chlorophenyl)ethoxy)carbonyl)amino)thiophen-2-yl)phenyl)carbamoyl)cyclohexane-1-carboxylic acid] | < 0.05 µM | – | – | –
Cc1nc(-c2onc(C)c2NC(=O)OC(C)c2cccnc2F)ccc1NC(=O)[C@H]1CCCC[C@@H]1C(=O)O (single isomer, unassigned) [Example 20] | 0.05 to 0.25 µM | ≤ 50% | – | –
Cc1noc(-c2ccc(NC(=O)C3CCCCC3C(=O)O)cc2)c1NC(=O)O[C@H](C)c1cccnc1 (stereo partly drawn) [comparative Example B, 2-((4-(3-methyl-4-((((R)-1-(pyridin-3-yl)ethoxy)carbonyl)amino)isoxazol-5-yl)phenyl)carbamoyl)cyclohexane-1-carboxylic acid, reference compound] | – | – | – | > 1 µM
C[C@@H](OC(=O)Nc1ccsc1-c1ccc(NC(=O)[C@H]2CCCC[C@@H]2C(=O)O)cn1)c1ccccc1Cl [Example 21, (1S,2S)-2-((6-(3-((((R)-1-(2-chlorophenyl)ethoxy)carbonyl)amino)thiophen-2-yl)pyridin-3-yl)carbamoyl)cyclohexane-1-carboxylic acid] | 0.25 to 0.6 µM | – | – | –
Cc1nc(-c2onc(C)c2NC(=O)O[C@H](C)c2nccs2)ccc1NC(=O)[C@H]1CCCC[C@@H]1C(=O)O [Example 22, (1S,2S)-2-((2-methyl-6-(3-methyl-4-((((R)-1-(thiazol-2-yl)ethoxy)carbonyl)amino)isoxazol-5-yl)pyridin-3-yl)carbamoyl)cyclohexane-1-carboxylic acid] | 0.25 to 0.6 µM | ≤ 50% | – | –
Cc1nc(-c2nnn(C)c2NC(=O)O[C@H](C)c2ccccc2F)ccc1NC(=O)[C@H]1CCCC[C@@H]1C(=O)O [Example 47, (1S,2S)-2-((6-(5-((((R)-1-(2-fluorophenyl)ethoxy)carbonyl)amino)-1-methyl-1H-1,2,3-triazol-4-yl)-2-methylpyridin-3-yl)carbamoyl)cyclohexane-1-carboxylic acid] | < 0.05 µM | ≤ 50% | – | –
CCC[C@@H](C)OC(=O)Nc1c(-c2ccc(NC(=O)[C@H]3CCCC[C@@H]3C(=O)O)c(C)n2)nnn1C [Example 52, (1S,2S)-2-((2-methyl-6-(1-methyl-5-(((((R)-pentan-2-yl)oxy)carbonyl)amino)-1H-1,2,3-triazol-4-yl)pyridin-3-yl)carbamoyl)cyclohexane-1-carboxylic acid] | 0.05 to 0.25 µM | ≤ 50% | – | –
Cc1noc(-c2ccc(NC(=O)[C@H]3CCCC[C@@H]3C(=O)O)cn2)c1NC(=O)OC(C)c1cccnc1F (single isomer, unassigned) [Example 18] | 0.05 to 0.25 µM | ≤ 50% | – | –
Cc1nc(-c2nnn(C)c2NC(=O)O[C@H](C)c2ccccc2Cl)ccc1NC(=O)[C@H]1CCCC[C@@H]1C(=O)O [Example 3, (1S,2S)-2-((6-(5-((((R)-1-(2-chlorophenyl)ethoxy)carbonyl)amino)-1-methyl-1H-1,2,3-triazol-4-yl)-2-methylpyridin-3-yl)carbamoyl)cyclohexane-1-carboxylic acid] | < 0.05 µM | ≤ 50% | – | –
Cc1noc(-c2ccc(N(C)C(=O)[C@H]3CCCC[C@@H]3C(=O)O)cn2)c1NC(=O)O[C@H](C)c1cccnc1Cl [Example 30, (1S,2S)-2-((6-(4-((((R)-1-(2-chloropyridin-3-yl)ethoxy)carbonyl)amino)-3-methylisoxazol-5-yl)pyridin-3-yl)(methyl)carbamoyl)cyclohexane-1-carboxylic acid] | 0.25 to 0.6 µM | ≤ 50% | – | –
Cc1nc(-c2onc(C)c2NC(=O)O[C@H](C)c2ccccc2Cl)ccc1NC(=O)C1CCCCC1C(=O)O (single isomer, unassigned) [Example 14] | – | – | ≤50% | –
Cc1noc(-c2ccc(NC(=O)[C@H]3CCCC[C@@H]3C(=O)O)cn2)c1NC(=O)OC(C)c1cccnc1F (stereo partly drawn) [Example 17, (1S,2S)-2-((6-(4-(((1-(2-fluoropyridin-3-yl)ethoxy)carbonyl)amino)-3-methylisoxazol-5-yl)pyridin-3-yl)carbamoyl)cyclohexane-1-carboxylic acid] | 0.05 to 0.25 µM | ≤ 50% | – | –
Cc1nc(-c2onc(C)c2NC(=O)O[C@H](C)c2cccnc2)ccc1NC(=O)[C@H]1CCCC[C@@H]1C(=O)O [Example 15, (1S,2S)-2-((2-methyl-6-(3-methyl-4-((((R)-1-(pyridin-3-yl)ethoxy)carbonyl)amino)isoxazol-5-yl)pyridin-3-yl)carbamoyl)cyclohexane-1-carboxylic acid] | 0.05 to 0.25 µM | ≤ 50% | – | –
Cc1nc(-c2onc(C)c2NC(=O)O[C@H](C)c2cccnc2)ccc1NC(=O)C1CCCCC1C(=O)O (stereo partly drawn) [Example 33, Cis-2-((2-methyl-6-(3-methyl-4-((((R)-1-(pyridin-3-yl)ethoxy)carbonyl)amino)isoxazol-5-yl)pyridin-3-yl)carbamoyl)cyclohexane-1-carboxylic acid] | 0.25 to 0.6 µM | – | – | –
Cc1nc(-c2onc(C)c2NC(=O)OC(C)c2cccnc2F)ccc1NC(=O)[C@H]1CCCC[C@@H]1C(=O)O (stereo partly drawn) [Example 19, (1S,2S)-2-((6-(4-(((1-(2-fluoropyridin-3-yl)ethoxy)carbonyl)amino)-3-methylisoxazol-5-yl)-2-methylpyridin-3-yl)carbamoyl)cyclohexane-1-carboxylic acid] | 0.05 to 0.25 µM | – | – | –
C[C@@H](OC(=O)Nc1c(-c2ccc(NC(=O)C3CCCCC3C(=O)O)cc2)cnn1C)c1ccccc1Cl (single isomer, unassigned) [Example 5] | 0.25 to 0.6 µM | – | – | –

From patent US12454530B2, “Amido cyclohexane acid derivatives as LPA receptor inhibitors” (CHIESI FARMACEUTICI S.P.A., priority 2020, dated 2025)
